Measured values reported in the CheMixHub ionic liquid set.

Test: xn = mol fraction of the nth substance listed
Details: for electrical conductivity: frequency 0.00293 MHz

CC[NH2+]CC.O=[N+]([O-])[O-] + CC[NH3+].O=[N+]([O-])[O-]
101 kPa
Details | electrical conductivity [S/m] | viscosity [mPa·s]
293.15 K, x1 = 0.0998 | 1.73 | 43.2
293.15 K, x1 = 0.3501 | 1.46 | –
298.15 K, x1 = 0.2501 | – | 38.3
308.15 K, x1 = 0.0499 | 2.78 | 27
313.15 K, x1 = 0.1999 | 2.79 | 25.1
313.15 K, x1 = 0.3501 | 2.63 | 24.9
318.15 K, x1 = 0.0998 | 3.44 | 19.7
318.15 K, x1 = 0.1499 | 3.39 | –
318.15 K, x1 = 0.2998 | – | 20.3
323.15 K, x1 = 0.1499 | 3.79 | 17.9
323.15 K, x1 = 0.1999 | 3.53 | 19.1
328.15 K, x1 = 0.0998 | – | 15.3
338.15 K, x1 = 0.2998 | – | 12.2
353.15 K, x1 = 0.0998 | – | 8.96
353.15 K, x1 = 0.1499 | – | 8.99
353.15 K, x1 = 0.1999 | – | 9.7
353.15 K, x1 = 0.3501 | – | 9.47

CC#N + CC[n+]1ccn(C)c1.F[B-](F)(F)F
viscosity [mPa·s]
Details | 303.15 K | 313.15 K | 323.15 K | 333.15 K
100 kPa, x1 = 1 | 0.354 | – | – | –
101 kPa, x2 = 0 | 0.326 | 0.297 | 0.272 | 0.249
